Source: patent US11596633B2, “SHP2 inhibitor compositions and methods for treating cancer” (Revolution Medicines, Inc., priority 2017, dated 2023)

Experiments:
p-ERK1/2 in H358 cells = assay: p-ERK AlphaLisa SureFire; format: cell-based, human; conditions: H358 cells (KRAS G12C)
Procedure: (§1) Cells were plated at ˜20×10^3 cells per well and following overnight incubation were washed with serum-free media. Cells were then incubated for one hour with increasing concentrations of the test article in serum-free media containing 0.2% BSA prior to termination of the assay and measurement of pERK levels in cellular lysates by AlphaLisa SureFire Ultra kit conducted according to the manufacturer's instructions.

pERK in NCI-H1838 cells = assay: p-ERK AlphaLisa SureFire; format: cell-based; conditions: for p-ERK: NCI-H1838 (NF1 LOF)
Procedure: as §1

[1] = system: RAS-GTP in NCI-H1838 cells; assay: RAS-GTP pulldown (Raf-RBD); format: cell-based; conditions: NCI-H1838 (NF1 LOF)
Procedure: (§2) To determine the effects of small molecules on levels of activated RAS-GTPase, cell lines of interest were cultured under standard 2D culture conditions. Cells were seeded and following overnight incubation incubated at 37° C. with vehicle (DMSO) or test article(s). After an appropriate incubation period, cells were washed and cell lysis buffer added to prepare a cell lysate. The levels of Ras-GTP in the lysates were determined using affinity purification of a Raf-RBD (Ras binding domain of Raf)/GTP-Ras complex. In one approach, the Pierce Active Ras Pulldown and Detection Kit was used. Briefly, clarified lysates (500 μg total protein, quantified by BCA) were mixed with glutathione resin, which had been preincubated with GST-Raf-RBD. The mixture was vortexed and incubated at 4° C. for 1 hour with gentle rocking. The resin was washed three times with lysis buffer and bound Ras-GTP eluted by addition of 2× reducing sample buffer. Eluted proteins were separated by SDS-PAGE using a 4-15% Tris-glycine gel (BioRad). Proteins were transferred to a nitrocellulose membrane for western blot using an anti-Ras antibody (Thermofisher, 1:200) and a Licor IRDye-800 anti-mouse secondary antibody (1:20,000). The Licor Odyssey CLx was used for visualization.
as §2, with “resin” for “resin,”

SW948 = assay: 3D cell viability (CTG); format: cell-based; conditions: Homo sapiens; SW948, KRAS Q61L, 3D culture
Procedure: (§3) To evaluate cell viability in 3D culture, cells in logarithmic growth phase were plated in growth medium containing 0.65% methylcellulose at an optimum seeding density. Cells were incubated overnight prior to treatment with different concentrations of the test article. Cells were cultured for an additional seven days and cell viability assessed using the CellTiterGlo™ (CTG) reagent, according to the manufacturer's instructions. In some instances, cells were grown in 3D culture as spheroids. Briefly, 2500 cells/well were seeded in round bottom ultra-low attachment 96-well plates (Corning) in growth media supplemented with 10% fetal bovine serum and 1% penicillin/streptomycin, and allowed to form spheroids for 72 hours at 37° C. in 5% CO2. […] Following drug exposure for five days, cell viability in spheroids was determined using the CellTiter-Glo assay kit.

RAS-GTP in H358 cells = assay: RAS-GTP pulldown (Raf-RBD); format: cell-based, human
Procedure: as §2, with “Eluted proteins were separated by SDS-PAGE using a 4-15% Tris-glycine gel (BioRad). Proteins were transferred to a nitrocellulose membrane for western blot using an anti-Ras antibody (Thermofisher, 1:200) and a Licor IRDye-800 anti-mouse secondary antibody (1:20,000). The Licor Odyssey CLx was used for visualization.” left out
To determine the effects of small molecules on levels of activated RAS-GTPase, cell lines of interest were cultured under standard 2D culture conditions. […] The levels of Ras-GTP in the lysates were determined using affinity purification of a Raf-RBD (Ras binding domain of Raf)/GTP-Ras complex. […] Briefly, clarified lysates (500 μg total protein, quantified by BCA) were mixed with glutathione resin which had been preincubated with GST-Raf-RBD. […]

Calu-6 = assay: 3D cell viability (CTG); format: cell-based; conditions: Homo sapiens; Calu-6, KRAS Q61K, 3D culture
Procedure: as §3

[2] = system: H1838 NF1 LOF NSCLC cells; assay: Cell growth, crystal violet stain; format: cell-based; conditions: 10 days
Procedure: (§4) To evaluate cell viability in 3D culture, cells in logarithmic growth phase were plated in growth medium containing 0.65% methylcellulose at an optimum seeding density. Cells were incubated overnight prior to treatment with different concentrations of the test article. Cells were cultured for an additional seven days and cell viability assessed using the CellTiterGlo™ (CTG) reagent, according to the manufacturer's instructions. In some instances, cells were grown in 3D culture as spheroids. Briefly, 2500 cells/well were seeded in round bottom ultra-low attachment 96-well plates (Corning) in growth media supplemented with 10% fetal bovine serum and 1% penicillin/streptomycin, and allowed to form spheroids for 72 hours at 37° C. in 5% CO2. […] Following drug exposure for five days, cell viability in spheroids was determined using the CellTiter-Glo assay kit. […] After one day in culture, cells were treated with the test article, which was then replenished every three days. Cells were maintained in culture for 10 days until the control wells reached confluency at which time the cells were fixed and stained with crystal violet.

MDA-MB-231 = assay: 3D cell viability (CTG); format: cell-based; conditions: Homo sapiens; MDA-MB-231, KRAS G13D, 3D culture
Procedure: as §3

H358 KRas G12C xenograft = assay: NSCLC H358 xenograft, CB.17 SCID mice; format: in vivo; conditions: oral administration
Procedure: Compound A or Compound B were administered by oral gavage daily. The positive control, paclitaxel (30 mg/kg iv) in 5% ethanol, 5% cremophor EL, in 5% dextrose in deionized water was administered once every five days. Trametinib (1 mg/kg PO in 0.5% Methylcellulose+0.5% Tween 80) was administered by oral gavage daily. The study endpoint was defined as a mean tumor volume of 2000 mm^3 in the control group or 22 days, whichever came first. Mean tumor volume data are reported for all animals that remained on study.

NCI-H441 = assay: 3D cell viability (CTG); format: cell-based; conditions: Homo sapiens; NCI-H441, KRAS G12V, 3D culture
Procedure: as §3

SW480 = assay: 3D cell viability (CTG); format: cell-based; conditions: Homo sapiens; SW480, KRAS G12V, 3D culture
Procedure: as §4

[3] = system: MiaPaca-2 KRas G12C xenograft; assay: Pancreatic MiaPaca-2 xenograft; format: in vivo, mice
Text: Similar methods were used to evaluate efficacy of test articles in the pancreatic MiaPaca-2 KRas^G12C xenograft model. Balb/c nude mice (6-8 weeks old) were implanted with […] MiaPaca-2 tumor cells in 50% Matrigel subcutaneously in the flank. […] Administration of test articles and study design are as described above for H358 xenograft model.

SHP2 Tyr-542 and Tyr-580 = assay: SHP2 tyrosine phosphorylation western blot; format: cell-based; conditions: 5 μM, 1 hour; MEFs, HEK293, H358; EGF or PDGF stimulated
Procedure: Cells (MEFs, HEK 293E, H358) were plated in 6-well plates at a density of 750,000 cells/well in low serum (0.1% FBS) media and allowed to grow overnight. […] Cells were stimulated with 50 ng/mL of EGF or PDGF for 5 minutes, washed with cold PBS, and 150 μL of lysis buffer (Thermo #1862301) with Halt Protease/Phosphatase inhibitor (Thermo #78440) was added. Cells were scraped, transferred to a cold Eppendorf tube and vortexed for 10 seconds. Lysates were spun at 4 C for 15 min at 13,000 rpm and transferred to a new tube. Lysate protein concentration was assessed using the BCA assay. Lysates (30 μg/lane) were run on a 4-15% Tris glycine gel and transferred to a nitrocellulose membrane using the iBlot2. Western blots were performed using phospho-SHP2 antibodies from Cell Signaling Technologies; […] (#3751) and […] (#3703) were both used at 1:1000 dilution in 5% BSA in TBS. Membranes were incubated with primary antibody overnight with gentle shaking at 4 C. Beta actin antibody (Cell Signaling Technologies #8457, 1:2000) was used as a loading control. The secondary antibody (Licor IRDye 800 CW anti-rabbit) was used at a 1:20000 dilution in 5% BSA in TBS for 1 hour shaking at room temperature. Blots were visualized using the Licor Odyssey Clx Imager.

SMILES | inhibition of p-ERK1/2 levels (p-ERK1/2 in H358 cells) | p-ERK (pERK in NCI-H1838 cells) | RAS-GTP levels [1] | feedback-driven RAS-GTP accumulation ([1]; MEK inhibition by trametinib) | IC50 (SW948) [µM] | Ras activation (levels of Ras-GTP) (RAS-GTP in H358 cells; H358 cells) | IC50 (Calu-6) [µM] | cell growth (crystal violet stain) [2] | IC50 (MDA-MB-231) [µM] | tumor volume (H358 KRas G12C xenograft) | IC50 (NCI-H441) [µM] | IC50 (SW480) [µM] | reduction in tumor volume compared with trametinib ([3]; 30 mg/kg PO qd, trametinib 1 mg/kg PO, MiaPaca-2 model) | tumor volume ([3]; oral administration, MiaPaca-2 xenograft) | IC50 (pERK in NCI-H1838 cells; Homo sapiens, NCI-H1838, 1 h, read-out: geometric mean IC50 for reduction in pERK) [µM] | RAS-GTP accumulation resulting from MEK inhibition by trametinib (RAS-GTP in H358 cells; H358 (KRAS G12C), 6 hour and 24 hour) | phosphorylation levels of SHP2 Y580 (SHP2 Tyr-542 and Tyr-580)
Nc1nc(N2CCC3(CCC[C@H]3N)CC2)cnc1Sc1ccnc(Cl)c1Cl [Compound A] | concentration-dependent inhibition | potently inhibited | inhibited | suppressed this effect | > 10 | inhibited | > 10 | potently inhibited | > 10 | dose-dependent decrease | 0.1 | > 10 | – | – | – | – | –
Cc1nc(N2CCC3(CC2)CO[C@@H](C)[C@H]3N)c(CO)nc1-c1cccc(Cl)c1Cl [Compound B] | concentration-dependent inhibition | suppression | downregulation | – | – | – | – | – | – | – | – | – | greater than trametinib | dose-dependent decrease | 0.029 | suppressed | decreases
